Reference: article PMC5082600, “New furoisocoumarins and isocoumarins from the mangrove endophytic fungus Aspergillus sp. 085242” (Beilstein Journal of Organic Chemistry, 2016)

Experiments:
[1] = DPPH free radical scavenging assay; details: DPPH 150 μM in MeOH, 30 min, room temperature, absorbance at 490 nm; vitamin C as positive control
Procedure: The assay for DPPH radical scavenging activity was measured by a reported method, with slight modifications. Firstly, 180 μL of DPPH^· (150 μM in MeOH) and 20 μL of a series of test compound solutions (31.2, 62.5, 125, 250, 500 μM in MeOH) were mixed in each well of a 96-well microtiter plate. The reaction was measured by determination of the absorbance Asample+DPPH· using a microtiter plate reader at 490 nm after shaking for 30 min at room temperature in the dark. Twenty μL test samples of each concentration with 180 μL of MeOH were used as the blank measurement for each tested compound, and the absorbance was recorded as Asample. The absorbance of the mixture of 20 μL of MeOH and 180 μL of DPPH^· was recorded as ADPPH·, and the absorbance of the 200 μL of MeOH was measured as Ablank. The natural antioxidant vitamin C was used as a positive control. Calculations of the DPPH^· scavenging activity was performed according to the following equation: scavenging activity (%) = [1 − (Asample+DPPH· − Asample)/(ADPPH· − Ablank)] × 100%. All measurements were done in triplicate from two independent experiments. The reported EC50 was the average value of two independent experiments.

EC50 [1] | melting point | SMILES
125 µM |  | CC(C)=C1Oc2c(ccc3cc(C)oc(=O)c23)C1=O [Compound 1, 7-methyl-2-(propan-2-ylidene)-9H-furo[3,2-h]isochromene-3,9(2H)-dione]
130 µM |  | CC(C)c1cc2ccc3c(c2o1)C(=O)O[C@H](C)C3 [Compound 3, (R)-2-isopropyl-7-methyl-6,7-dihydro-9H-furo[3,2-h]isochromen-9-one]

Further lines, the compound ahead of its results:

SMILES | EC50 [1] | melting point
O=C1O[C@H]([C@@H](O)CO)C(O)=C1O [vitamin C, reference compound] | 35 µM | 
COc1cc2c(c(O)c1COCc1c(OC)cc3c(c1O)C(=O)OCC3)C(=O)OCC2 [Compound 6, asperisocoumarin F] |  | 201.1 to 203 °C
CC(C)[C@H]1Oc2c(ccc3c2C(=O)O[C@H](C)C3)[C@H]1O [Compound 2, asperisocoumarin B] |  | 179.4 to 181.4 °C
